Reference: patent US6034211A, “β-sheet nucleating peptidomimetics” (priority 1996, dated 2000)
Starred links: 1 amine or outer side, 2 acyl side, 3 side chain; linkers in the order of their positions; H or OH if unused. Non-standard residues stand in square brackets, D forms with d. Residues, ends and D or L forms follow the SMILES beside them. X1 = O=C(CCc1ccccc1-c1cccc(CCN[*:1])c1)[*:2]; Orn = NCCC[C@H](N)C(=O)O

Tests used:
[1] = Amide proton/deuterium exchange studies by NMR; assay type: physicochemical; conditions: for rates of amide proton/deuterium exchange of the Leu and Val residues flanking 1 relative to the remaining residues: peptide A 3.0-3.3 mM, pH 3.4-3.6, peptide D 2.5-2.9 mM, pH 4.1-5.1
Description: Information concerning the hydrogen-bonding network within a peptide containing residue 1A in aqueous solution was obtained from amide exchange studies of peptide A (3.0-3.3 mM, pH 3.4-3.6) and peptide D (2.5-2.9 mM, pH 4.1-5.1) where peptides A and D appear to be unstructured by far-UV CD.
Amide exchange studies at pH 3.2 were used to examine the hydrogen-bonding properties of peptide G which is expected to be partially folded on the basis of the studies discussed above.

[2] = Analytical equilibrium ultracentrifugation (solution molecular weight, quaternary structure)
[3] = Far-UV circular dichroism studies of peptide folding (random coil vs β-sheet); assay type: physicochemical
Description: Heptapeptide A has an -amino acid sequence homologous to a 4-(2-aminoethyl)-6-dibenzofuranpropionic acid-based heptapeptide studied previously, allowing comparsion of the efficacy of the biphenyl- and dibenzofuran-based amino acids as nucleators in a momologous α-aminoacid sequence. Peptide B, having a Phe in place of Leu-3, was prepared to test the feasibility of using an aromatic-aromatic interaction to stabilize the hydrophobic cluster and facilitate β-sheet folding. In peptide C, ornithine-2 was replaced with Glu to probe the effect of an addition long-range residue-residue electrostatic interaction (salt bridge) on β-sheet stability in the context of a heptapeptide.
The high charge density on peptides D and E should prevent the favorable strand-strand interactions required for sheet formation at low pH. The removal of two or more of the charges on the Lys ε-ammonium groups effected by increasing the pH is expected to facilitate intramolecular folding followed by self-assembly. A leucine was employed as one of the flanking residues in these peptides instead of valine because the increased side chain flexibility should maximize packing interactions required for hydrophobic cluster formation. […] Peptide E was identical to peptide D except that it incorporated residue 2A in place of residue 1A. […] Peptide F was prepared to probe the importance of hydrophobic cluster formation in β-sheet folding mediated by residue 1A. The flanking hydrophobic residues in peptide D were replaced with hydrophilic lysine residues in peptide F while maintaining a highly momologous amino acid composition and an amphiphilic periodicity of 2A.

| Compound | rates of amide proton/deuterium exchange of the Leu and Val residues flanking 1 relative to the remaining residues [1] | observed solution molecular weight (expected monomer 1644) ([2]; 0.11 mM, pH 6.8) | association state by analytical equilibrium ultracentrifugation ([2]; within the concentration and pH ranges studied) | rates of amide proton exchange of Leu-6, Val-8, Val-4 and Val-10 relative to the remaining residues ([1]; pH 3.2) | association state by concentration dependent far-UV CD ([3]; 0.015-0.4 mM, pH 7, mean residue ellipticity at 225 nm constant) | pH dependence of far-UV CD spectra ([3]; 25° C.) | structure by far-UV CD ([3]; 25° C.) | aggregation upon heating ([3]; upon heating) | change of structure upon heating (far-UV CD) ([3]; upon heating) |
| --- | --- | --- | --- | --- | --- | --- | --- | --- | --- |
| CC(C)C[C@H](NC(=O)[C@H](CCCN)NC(=O)[C@@H](NC(=O)CCc1ccccc1-c1cccc(CCNC(=O)[C@H](CC(C)C)NC(=O)[C@H](CCCN)NC(=O)[C@@H](N)C(C)C)c1)C(C)C)C(N)=O [A, Val Orn Leu 1A Val Orn Leu] (H-V[Orn]L[X1]V[Orn]L-NH2) | at least an order of magnitude slower | – | – | – | – | – | – | – | – |
| CC(C)C[C@H](NC(=O)[C@H](CCCCN)NC(=O)[C@@H](NC(=O)[C@H](CCCCN)NC(=O)[C@@H](NC(=O)[C@@H](N)CCCCN)C(C)C)C(C)C)C(=O)NCCc1cccc(-c2ccccc2CCC(=O)N[C@H](C(=O)N[C@@H](CCCCN)C(=O)N[C@H](C(=O)N[C@@H](CCCCN)C(=O)N[C@H](C(=O)N[C@@H](CCCCN)C(N)=O)C(C)C)C(C)C)C(C)C)c1 [Peptide D, Lys Val Lys Val Lys Leu 1A Val Lys Val Lys Val Lys] (H-KVKVKL[X1]VKVKVK-NH2) | at least an order of magnitude slower | – | – | – | – | – | – | – | – |
| Lys Val N--Me--Leu Val Lys Leu 1A Val Lys Val N--Me--Leu Val Lys [Peptide G] | – | 1600±80 | monomeric | significantly slower | monomeric | little dependence on pH | both random coil and β-sheet structure | does not aggregate | increase in β-sheet structure |
